Reference: patent US11505548B2, “Heterocyclic compounds and their use for treatment of helminthic infections and diseases” (Celgene Corporation, priority 2019, dated 2022)

System: microfilariae of Dirofilaria immitis
Test: Dirofilaria immitis, Microfilaria (DiMF) Assay
Assay type: cell-based
Details: read-out: D. immitis activity level (IC50 or MED)
Method: Heartworm Screen Dirofilaria immitis (D. immitis)
Dirofilaria immitis, Microfilaria (DiMF) Assay.
Compounds were dissolved and serially diluted in DMSO. Aliquots were spotted to the empty wells of assay plates. Media and microfilariae of Dirofilaria immitis were added to each well to dilute the test compounds to the desired concentrations. Assay plates were incubated for approximately 72 hours, and the larvae in each well were observed microscopically for drug effect. Microfilariae in each well were assessed subjectively for survival or paralysis, and results were reported as Minimum Effective Dose (MED).
Active and selective (DiL4 vs. DiMF potency) example compounds were subsequently evaluated in heartworm positive dog studies to correlate the in vitro selectivity profile with in vivo effects on circulating microfilariae.

Structure (SMILES)	IC50
FC(F)(F)c1ccc(Nc2nc(-c3ccccn3)ns2)nc1 [Cmpd 1]	< 200 nM
COc1ccc(Nc2nc(-c3ccccn3)ns2)nc1 [Cmpd 2, N-(5-methoxy-pyridin-2-yl)-3-(pyridin-2-yl)-1,2,4-thiadiazol-5-amine]	500 to 5000 nM
FC(F)(F)c1cncc(Nc2nc(-c3ccccn3)ns2)c1 [Cmpd 3, 3-(pyridin-2-yl)-N-(5-(trifluoromethyl)pyridin-3-yl)-1,2,4-thiadiazol-5-amine]	500 to 5000 nM
c1ccc(-c2nsc(Nc3ccc(N4CCCCC4)cn3)n2)nc1 [Cmpd 6, N-(5-(piperidin-1-yl)pyridin-2-yl)-3-(pyridin-2-yl)-1,2,4-thiadiazol-5-amine]	500 to 5000 nM
c1ccc(-c2nsc(Nc3ccc(N4CCCC4)cn3)n2)nc1 [Cmpd 8, 3-(pyridin-2-yl)-N-(5-(pyrrolidin-1-yl)pyridin-2-yl)-1,2,4-thiadiazol-5-amine]	500 to 5000 nM
c1ccc(-c2nsc(Nc3ccc(OC4CCOCC4)cn3)n2)nc1 [Cmpd 9, 3-(pyridin-2-yl)-N-(5-(tetrahydro-2H-pyran-4-yloxy)pyridin-2-yl)-1,2,4-thiadiazol-5-amine]	500 to 5000 nM
Cc1ccnc(-c2nsc(Nc3ncccc3F)n2)c1 [Compound 12, N-(3-fluoropyridin-2-yl)-3-(4-methylpyridin-2-yl)-1,2,4-thiadiazol-5-amine]	200 to 500 nM
Cc1ccnc(-c2noc(Nc3ncccc3F)n2)c1 [Compound 14, N-(3-fluoro-pyridin-2-yl)-3-(4-methylpyridin-2-yl)-1,2,4-oxadiazol-5-amine]	500 to 5000 nM
Cc1cccnc1Nc1nc(-c2ccc(OC3CCOCC3)cn2)ns1 [Compound 15, N-(3-methyl-pyridin-2-yl)-3-(5-(tetrahydro-2H-pyran-4-yloxy)pyridin-2-yl)-1,2,4-thiadiazol-5-amine]	500 to 5000 nM
Cc1cccnc1Nc1nc(-c2ccc(OC3CCOCC3)cn2)no1 [Compound 16, N-(3-methyl-pyridin-2-yl)-3-(5-(tetrahydro-2H-pyran-4-yloxy)pyridin-2-yl)-1,2,4-oxadiazol-5-amine]	500 to 5000 nM
Cc1cccnc1Nc1nc(-c2ccc(OC(C)C)cn2)ns1 [Compound 19, 3-(5-isopropoxy-pyridin-2-yl)-N-(3-methyl-pyridin-2-yl)-1,2,4-thiadiazol-5-amine]	< 200 nM
Cc1cccnc1Nc1nc(-c2ccc(OC(C)C)cn2)no1 [Compound 20, 3-(5-isopropoxy-pyridin-2-yl)-N-(3-methyl-pyridin-2-yl)-1,2,4-oxadiazol-5-amine]	500 to 5000 nM
CNc1cccnc1Nc1nc(-c2cc(C)ccn2)ns1 [Compound 23, N3-methyl-N2-(3-(4-methylpyridin-2-yl)-1,2,4-thiadiazol-5-yl) pyridine-2,3-diamine]	200 to 500 nM
Cc1cccnc1Nc1nc(-c2ccc(OC3CC3)cn2)ns1 [Compound 38, 3-(5-cyclo-propoxypyridin-2-yl)-N-(3-methyl-pyridin-2-yl)-1,2,4-thiadiazol-5-amine]	200 to 500 nM
Cc1cccnc1Nc1nc(-c2cc(C#N)ccn2)ns1 [Compound 40, 2-(5-(3-methyl-pyridin-2-ylamino)-1,2,4-thiadiazol-3-yl)isonicotino-nitrile]	500 to 5000 nM
Cc1cccnc1-c1noc(Nc2ccc(N3CCCC3)cn2)n1 [Compound 42, 3-(3-methyl-pyridin-2-yl)-N-(5-(pyrrolidin-1-yl)pyridin-2-yl)-1,2,4-oxadiazol-5-amine]	500 to 5000 nM
Cc1cccnc1Nc1nc(-c2ccc(OC3CCN(C4CC4)CC3)cn2)ns1 [Compound 45, 3-(5-(1-cyclo-propylpiperidin-4-yloxy)pyridin-2-yl)-N-(3-methylpyridin-2-yl)-1,2,4-thiadiazol-5-amine]	500 to 5000 nM
Cc1cccnc1-c1nsc(Nc2ccc(N3CCCC3)cn2)n1 [Compound 51, 3-(3-methyl-pyridin-2-yl)-N-(5-(pyrrolidin-1-yl)pyridin-2-yl)-1,2,4-thiadiazol-5-amine]	500 to 5000 nM
Cc1cccnc1Nc1nc(-c2ccc(OC(F)(F)F)cn2)ns1 [Compound 52, N-(3-methyl-pyridin-2-yl)-3-(5-(trifluoro-methoxy)pyridin-2-yl)-1,2,4-thiadiazol-5-amine]	500 to 5000 nM
CC(C)Oc1ccc(-c2nsc(Nc3ncccc3C(F)(F)F)n2)nc1 [Compound 54, 3-(5-isopropoxy-pyridin-2-yl)-N-(3-(trifluoromethyl)pyridin-2-yl)-1,2,4-thiadiazol-5-amine]	< 200 nM

Structure (SMILES)	IC50
CN1CCC(Oc2ccc(-c3nsc(Nc4ncccc4C(F)(F)F)n3)nc2)CC1 [Compound 55, 3-(5-(1-methyl-piperidin-4-yloxy)pyridin-2-yl)-N-(3-(trifluoromethyl)pyridin-2-yl)-1,2,4-thiadiazol-5-amine]	500 to 5000 nM
CC(C)Oc1ccc(-c2nsc(Nc3ncccc3N(C)C)n2)nc1 [Compound 56, N2-(3-(5-isoprop-oxypyridin-2-yl)-1,2,4-thiadiazol-5-yl)-N3,N3 - dimethyl-pyridine-2,3-diamine]	200 to 500 nM
CN1CCC(Oc2ccnc(-c3nsc(Nc4ncccc4C(F)(F)F)n3)c2)CC1 [Compound 62, 3-(4-(1-methyl-piperidin-4-yloxy)pyridin-2-yl)-N-(3-(trifluoromethyl)pyridin-2-yl)-1,2,4-thiadiazol-5-amine]	500 to 5000 nM
Cc1cccnc1Nc1nc(-c2cc(OC3CC3)ccn2)ns1 [Compound 65, 3-(4-cycloprop-oxypyridin-2-yl)-N-(3-methyl-pyridin-2-yl)-1,2,4-thiadiazol-5-amine]	< 200 nM
CC(C)c1ccnc(-c2nsc(Nc3ncccc3C(F)(F)F)n2)c1 [Compound 67, 3-(4-isopropyl-pyridin-2-yl)-N-(3-(trifluoromethyl)pyridin-2-yl)-1,2,4-thiadiazol-5-amine]	< 200 nM
COc1ccc(-c2nsc(Nc3ccc(C4CCCC4)cn3)n2)nc1 [Compound 68, N-(5-cyclopentyl-pyridin-2-yl)-3-(5-methoxypyridin-2-yl)-1,2,4-thiadiazol-5-amine]	500 to 5000 nM
CC(C)Oc1ccc(-c2n[nH]c(Nc3ncccc3C(F)(F)F)n2)nc1 [Compound 70, N-(3-(5-isopropoxy-pyridin-2-yl)-1H-1,2,4-triazol-5-yl)-3-(trifluoromethyl) pyridin-2-amine]	500 to 5000 nM
Cc1cccnc1Nc1nc(-c2ccc(OCC3CC3)cn2)ns1 [Compound 73, 3-(5-(cyclopropyl-methoxy)pyridin-2-yl)-N-(3-methylpyridin-2-yl)-1,2,4-thiadiazol-5-amine]	200 to 500 nM
CC(C)c1cccnc1Nc1nc(-c2ccc(OC3CC3)cn2)ns1 [Compound 74, 3-(5-cyclopropoxy-pyridin-2-yl)-N-(3-isopropylpyridin-2-yl)-1,2,4-thiadiazol-5-amine]	< 200 nM
CC(C)Oc1ccc(-c2nsc(Nc3ncccc3C3CC3)n2)nc1 [Compound 76, N-(3-cyclopropyl-pyridin-2-yl)-3-(5-isopropoxy-pyridin-2-yl)-1,2,4-thiadiazol-5-amine]	< 200 nM
CN(C)c1cccnc1Nc1nc(-c2ccc(OC3CC3)cn2)ns1 [Compound 78, N2-(3-(5-cyclopropoxy-pyridin-2-yl)-1,2,4-thiadiazol-5-yl)-N3,N3-dimethyl-pyridine-2,3-diamine]	500 to 5000 nM
COc1cccnc1Nc1nc(-c2ccc(OC3CC3)cn2)ns1 [Compound 80, 3-(5-cycloprop-oxypyridin-2-yl)-N-(3-methoxypyridin-2-yl)-1,2,4-thiadiazol-5-amine]	500 to 5000 nM
Cc1cccnc1Nc1nc(-c2ccc(OC3CCN(C4CC4)CC3(F)F)cn2)ns1 (stereo not shown) [Compound 83, 3-(5-(1-cyclo-propyl-3,3-difluoro-piperidin-4-yloxy)pyridin-2-yl)-N-(3-methylpyridin-2-yl)-1,2,4-thiadiazol-5-amine]	200 to 500 nM
FC(F)(F)c1cccnc1Nc1nc(-c2cc(C3CC3)ccn2)ns1 [Compound 84, 3-(4-cyclopropyl-pyridin-2-yl)-N-(3-(trifluoromethyl)pyridin-2-yl)-1,2,4-thiadiazol-5-amine]	< 200 nM
FC(F)(F)c1ccnc(Nc2nc(-c3cc(C4CC4)ccn3)ns2)c1 [Compound 85, 3-(4-cyclopropyl-pyridin-2-yl)-N-(4-(trifluoromethyl)pyridin-2-yl)-1,2,4-thiadiazol-5-amine]	< 200 nM
CC(C)c1ccnc(-c2nsc(Nc3cc(C(F)(F)F)ccn3)n2)c1 [Compound 86, 3-(4-isopropyl-pyridin-2-yl)-N-(4-(trifluoromethyl)pyridin-2-yl)-1,2,4-thiadiazol-5-amine]	< 200 nM
CC(C)c1cccnc1Nc1nc(-c2ccc(OC3CCN(C4CC4)CC3(F)F)cn2)ns1 (stereo not shown) [Compound 87, 3-(5-(1-cyclo-propyl-3,3-difluoro-piperidin-4-yloxy)pyridin-2-yl)-N-(3-isopropylpyridin-2-yl)-1,2,4-thiadiazol-5-amine]	200 to 500 nM
CC(C)c1cccnc1Nc1nc(-c2ccc(O[C@@H]3CCN(C4CC4)C[C@@H]3F)cn2)ns1 [Compound 89, 3-(5-((3S,4R)-1-cyclopropyl-3-fluoro-piperidin-4-yloxy)pyridin-2-yl)-N-(3-isopropylpyridin-2-yl)-1,2,4-thiadiazol-5-amine]	< 200 nM
Cc1cccnc1Nc1nc(-c2ccc(O[C@@H]3CCN(C4CC4)C[C@H]3F)cn2)ns1 [Compound 91, 3-(5-((3R,4R)-1-cyclopropyl-3-fluoro-piperidin-4-yloxy)pyridin-2-yl)-N-(3-methylpyridin-2-yl)-1,2,4-thiadiazol-5-amine]	500 to 5000 nM
Cc1cccnc1Nc1nc(-c2ncc(OC3CC3)cc2C(F)(F)F)ns1 [Compound 93, 3-(5-cyclo-propoxy-3-(trifluoromethyl)pyridin-2-yl)-N-(3-methyl-pyridin-2-yl)-1,2,4-thiadiazol-5-amine]	500 to 5000 nM
